Source: ChEMBL document CHEMBL1146879, “Novel benzimidazole-based MCH R1 antagonists” (Bioorg Med Chem Lett, 2006)

Experiments:
[1] = molecular target: Melanin-concentrating hormone receptor 1 (Homo sapiens, UniProt Q99705); assay: Antagonist activity against MCH1R expressed in CHO cells assessed as inhibition of MCH-induced EC80 […] response by luciferase reporter gene assay; format: functional, cell-based
[2] = Bioavailability in rat at 3 mg/kg, iv and 5 to 10 mg/kg, po; format: ADME, organism-based; settings: in vivo
[3] = Ratio of drug level in brain against plasma in mouse; format: ADME, organism-based; settings: brain and plasma, read-out: BPR
Mus musculus [4] = assay: Decrease in body weight of AKR/J DIO mouse relative to control after 15 days at 3 mg/kg, po; format: functional; set-up: scale not given: the % may be the effect or the level left
[5] = Half life in mouse; format: ADME, organism-based; settings: in vivo
Mus musculus [6] = assay: Decrease in body weight of AKR/J DIO mouse relative to control after 15 days at 10 mg/kg, po; format: functional; set-up: scale not given: the % may be the effect or the level left
Mus musculus [7] = assay: Decrease in body weight of AKR/J DIO mouse relative to control after 15 days at 0.3 mg/kg, po; format: functional; set-up: scale not given: the % may be the effect or the level left
[8] = Bioavailability in mouse at 1.6 mg/kg, iv and 5.2 mg/kg, po; format: ADME, organism-based; settings: in vivo
Mus musculus [9] = assay: Decrease in body weight of AKR/J DIO mouse relative to control after 15 days at 1 mg/kg, po; format: functional; set-up: scale not given: the % may be the effect or the level left

Sequence of Melanin-concentrating hormone receptor 1 (Q99705 whole entry): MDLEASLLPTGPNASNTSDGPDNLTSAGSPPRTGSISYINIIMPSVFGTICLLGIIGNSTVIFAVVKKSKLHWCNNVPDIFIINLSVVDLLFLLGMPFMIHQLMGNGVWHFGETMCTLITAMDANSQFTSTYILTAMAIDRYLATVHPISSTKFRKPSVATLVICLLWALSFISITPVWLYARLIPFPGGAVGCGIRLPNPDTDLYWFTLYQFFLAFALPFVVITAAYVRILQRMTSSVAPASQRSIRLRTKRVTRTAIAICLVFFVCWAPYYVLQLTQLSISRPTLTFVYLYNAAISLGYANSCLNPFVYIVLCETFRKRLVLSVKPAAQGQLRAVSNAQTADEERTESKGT

Row | SMILES | IC50 [1] | bioavailability [2] | also measured
1 | CC(C)Nc1nc2cc(-n3cnc4cc(-c5ccc(Cl)cc5)sc4c3=O)ccc2[nH]1 | 7.94 nM |  | 
2 | CCOc1ccc(-n2c(C)nc3cc(-n4cnc5cc(-c6ccc(Cl)cc6)sc5c4=O)ccc32)cc1 | 3.16 nM |  | 
3 | CN(C)c1nc2cc(-n3cnc4cc(-c5ccc(Cl)cc5)sc4c3=O)ccc2[nH]1 | 2.51 nM | 4% | 
4 | Cc1ccc(-n2c(C)nc3cc(-n4cnc5cc(-c6ccc(Cl)cc6)sc5c4=O)ccc32)cc1 | 20 nM |  | 
5 | Cc1nc2cc(-n3cnc4cc(-c5ccc(Cl)cc5)sc4c3=O)ccc2n1-c1ccc(N(C)C)cc1 | 5.01 nM |  | 
6 | Cc1nc2cc(-n3cnc4cc(-c5ccc(Cl)cc5)sc4c3=O)ccc2n1C1CCCCC1 | 6.31 nM | 0% | 
7 | COCCCn1c(C)nc2cc(-n3cnc4cc(-c5ccc(Cl)cc5)sc4c3=O)ccc21 | 5.01 nM | 40% | 
8 | CN(C)c1nc2ccc(-n3cnc4cc(-c5ccc(Cl)cc5)sc4c3=O)cc2n1C | 1.58 nM | ≥ 100% | Kp [3]: 2.6; Activity (Mus musculus [4]): -5.1%; half-life [5]: 360 min; Activity (Mus musculus [6]): -10%; Activity (Mus musculus [7]): -1.6%; bioavailability [8]: > 90%; Activity (Mus musculus [9]): -2.1%
9 | CN1CCN(c2nc3cc(-n4cnc5cc(-c6ccc(Cl)cc6)sc5c4=O)ccc3[nH]2)CC1 | 100 nM |  | 
10 | CN(C)c1nc2ccc(-n3cnc4cc(-c5ccc(Cl)cc5)sc4c3=O)cc2n1CCO | 12.6 nM | 55% | 
11 | CN(CCN1CCCC1)c1nc2cc(-n3cnc4cc(-c5ccc(Cl)cc5)sc4c3=O)ccc2[nH]1 | 5.01 nM | 0% | 
12 | CCCn1c(N(C)C)nc2ccc(-n3cnc4cc(-c5ccc(Cl)cc5)sc4c3=O)cc21 | 5.01 nM | 21% | 
13 | Cc1nc2cc(-n3cnc4cc(-c5ccc(Cl)cc5)sc4c3=O)ccc2n1CCN1CCOCC1 | 6.31 nM | 24% | 
14 | CN(C)c1nc2cc(-n3cnc4cc(-c5ccc(Cl)cc5)sc4c3=O)ccc2n1C | 6.31 nM |  | 
15 | O=c1c2sc(-c3ccc(Cl)cc3)cc2ncn1-c1ccc2[nH]c(NCCN3CCCC3)nc2c1 | 6.31 nM | 0% | 
16 | CCCn1c(N(C)C)nc2cc(-n3cnc4cc(-c5ccc(Cl)cc5)sc4c3=O)ccc21 | 5.01 nM | 30% | 
17 | Cn1c(N2CCCC2)nc2cc(-n3cnc4cc(-c5ccc(Cl)cc5)sc4c3=O)ccc21 | 25.1 nM |  | 
18 | Cc1nc2cc(-n3cnc4cc(-c5ccc(Cl)cc5)sc4c3=O)ccc2[nH]1 | 25.1 nM |  | 
19 | COc1ccc(Cn2c(N(C)C)nc3ccc(-n4cnc5cc(-c6ccc(Cl)cc6)sc5c4=O)cc32)cc1 | 2510 nM |  | 
20 | Cc1nc2cc(-n3cnc4cc(-c5ccc(Cl)cc5)sc4c3=O)ccc2n1-c1ccccc1 | 31.6 nM |  | 
21 | Nc1nc2cc(-n3cnc4cc(-c5ccc(Cl)cc5)sc4c3=O)ccc2[nH]1 | 31.6 nM |  | 

The remaining molecules from weak to strong by IC50 [1], led by results:

Row | IC50 [1] | bioavailability [2] | SMILES | also measured
22 | 31.6 nM |  | COCCNc1nc2cc(-n3cnc4cc(-c5ccc(Cl)cc5)sc4c3=O)ccc2[nH]1 | 
23 | 15.8 nM |  | O=c1c2sc(-c3ccc(Cl)cc3)cc2ncn1-c1ccc2[nH]c(NC3CC3)nc2c1 | 
24 | 15.8 nM |  | O=c1c2sc(-c3ccc(Cl)cc3)cc2ncn1-c1ccc2[nH]c(N3CCOCC3)nc2c1 | 
25 | 12.6 nM |  | COc1ccc(Cn2c(N(C)C)nc3cc(-n4cnc5cc(-c6ccc(Cl)cc6)sc5c4=O)ccc32)cc1 | 
26 | 10 nM | 16% | COc1ccc(-n2c(N(C)C)nc3cc(-n4cnc5cc(-c6ccc(Cl)cc6)sc5c4=O)ccc32)cc1 | 
27 | 10 nM | 59% | CN(C)c1nc2cc(-n3cnc4cc(-c5ccc(Cl)cc5)sc4c3=O)ccc2n1CCO | 
28 | 7.94 nM |  | Cc1nc2cc(-n3cnc4cc(-c5ccc(Cl)cc5)sc4c3=O)ccc2n1-c1ccc(OC(C)C)cc1 | 
29 | 6.31 nM | ≥ 100% | Cn1c(N2CCCC2)nc2ccc(-n3cnc4cc(-c5ccc(Cl)cc5)sc4c3=O)cc21 | 
30 | 5.01 nM | 3% | COc1ccc(-n2c(C)nc3cc(-n4cnc5cc(-c6ccc(Cl)cc6)sc5c4=O)ccc32)cc1 | 
31 | 5.01 nM | 31% | O=c1c2sc(-c3ccc(Cl)cc3)cc2ncn1-c1ccc2[nH]c(N3CCCCC3)nc2c1 | 
32 | 3.98 nM | 0% | CNc1nc2cc(-n3cnc4cc(-c5ccc(Cl)cc5)sc4c3=O)ccc2[nH]1 | 
33 | 3.16 nM | 76% | O=c1c2sc(-c3ccc(Cl)cc3)cc2ncn1-c1ccc2[nH]c(N3CCCC3)nc2c1 | 
34 | 2 nM | 31% | Cc1nc2cc(-n3cnc4cc(-c5ccc(Cl)cc5)sc4c3=O)ccc2n1CCN1CCCC1 | 
35 | 1.58 nM | ≥ 100% | Cc1nc2cc(-n3cnc4cc(-c5ccc(Cl)cc5)sc4c3=O)ccc2n1CCCO | 
